Reference: PMC5527305, “Prevention of Ophthalmia Neonatorum Caused by Neisseria gonorrhoeae Using a Fatty Acid-Based Formulation” (mBio, 2017)
Values after ≈ are worked out from the molar mass of the structure shown. “Also recorded” adds a separate entry of the source. Read-outs that look alike come from different tables or passages of the source.

Assays:
[1] = test system: chorioallantoic membrane; assay: Hen's egg test-chorioallantoic membrane (HET-CAM); parameters: species or system white leghorn eggs
Description: The samples were all tested on the HET-CAM at 1 mg/ml, providing a range of 3.6 mM for linolenic acid to 5 mM for lauric acid. […] Results from the controls and an example of a tested candidate are illustrated in Fig. 5.
The HET-CAM was performed as described by Alany and coworkers ([20]). Fertilized white leghorn eggs (Henry Stewart and Co. Ltd., Fakenham, Norfolk, United Kingdom) were checked for damage and incubated at 37°C with 60% to 70% relative humidity. At day 4, the eggs were removed from their shells and placed in incubation chambers. At day 9, the CAMs were tested. This was done by applying 200 µl of the testing material and monitoring inflammatory responses at 30, 120, and 300 s. At each of these time points, the conjunctival irritation potential of the test substance on the CAMs was evaluated by assessing them against the published scoring system ([20]).

[2] = test system: bovine RBCs; assay: Red blood cell (RBC) lysis assay; type: cell-based
Description: Whole bovine blood was obtained from a local slaughter house (ABP), adding 90 ml blood to 10 ml 110 mM trisodium citrate anticoagulant. RBCs were isolated the same day. The RBCs were washed by three repeats of centrifugation (1,500 × g for 10 min) and resuspension in phosphate-buffered saline (PBS) with 10 mM glucose (PBSG). Testing was done following the guidelines of the European Union Reference Laboratory for alternatives to animal testing (EURL-ECVAM) ([22]). The organic acids were solubilized in dimethyl sulfoxide (DMSO) and diluted to a maximum DMSO concentration of 10%. In a 2-ml centrifuge tube, 750 µl of the sample was added to 250 µl RBCs. Controls used in the assay were a complete lysis control (deionized water) and a fragility control (PBSG–10% DMSO). Samples were shaken at room temperature for 1 h and then centrifuged at 14,000 × g for 2 min. An aliquot of 750 µl of the supernatant was taken and its absorbance at 451 nm measured.

[3] = test system: N. gonorrhoeae strain NCCP11945; assay: Growth inhibition screen on GC solid media containing 1 mM candidate; type: cell-based, Neisseria gonorrhoeae; conditions: 1 mM candidate in GC agar media; Yes = strain NCCP11945 did not grow
Description: (§1) To find potential candidates, 37 organic acids, esters, and salts were tested in a two-tiered screening process. These candidates were chosen based on the carbon chain lengths of the fatty acids, the presence or absence of saturation, and modifications to represent a diverse selection of organic acid candidates. The first screen aimed to determine the ability of each compound to inhibit the growth of N. gonorrhoeae strain NCCP11945 at 1 mM in GC solid media (Table 1). This strain was chosen due to its relatively recent isolation, its antibiotic resistance profile, and the availability of a complete genome sequence. Those candidates able to inhibit the growth of N. gonorrhoeae strain NCCP11945 were investigated in a second assay. The second assay tested the ability of each compound to cause at least a 4-log reduction in viable bacteria at 1 mM with a 2-min exposure time (Table 1).
(§2) The well-characterized N. gonorrhoeae NCCP11945 strain ([36]) was used in the screening stage. Eight isolates obtained from Public Health England, representing circulating isolates from various European locations, were used in the log reduction assays. All isolates were cultured for 24 h prior to testing by plating on GC solid medium (Oxoid Limited, Hampshire, United Kingdom) with Kellogg supplements and incubation at 37°C and 5% CO2 ([37]).

[4] = test system: gonococcal cells (isolate NCCP 11945); assay: Log reduction in artificial tear fluid with or without calcium chloride; type: cell-based, Neisseria gonorrhoeae; conditions: for Reduction in bacterial cell number in artificial tear fluid containing calcium chloride / Antigonococcal properties in tear fluid made without calcium chloride: 1 mM candidate, 2 min; for Reduction in bacterial cell number in artificial tear fluid containing calcium chloride: with calcium; for Effect of calcium in artificial tear fluid on antimicrobial effect: calcium 1 mM, Fig. 2
Description: The antigonococcal properties of the seven selected fatty acids were tested in artificial tear fluid, which contained calcium chloride. The addition of 1 mM lauric acid, tridecanoic acid, or sodium dodecanoate gave no reduction in bacterial cell number after exposure, in contrast to the results seen when they were tested in culture medium (Fig. 2). […] This was most likely due to the negative effect of calcium on the aqueous solubility of these candidates.
Artificial tear fluid was made as described by Mirejovsky and others ([39]) with or without calcium chloride. […] As with the previous log reductions, 10^7 gonococcal cells (isolate NCCP 11945) were suspended in GC broth. The cell suspension was centrifuged to remove the culture medium, and the bacteria were resuspended in the tear fluid. This was then added to the concentrated organic acid candidates. The cells were then enumerated again after 2 min of exposure to estimate any reduction in cell number due to the exposure to the organic acid.

[5] = test system: N. gonorrhoeae strain NCCP11945; assay: Log reduction assay in GC broth, 2-min exposure; type: cell-based, Neisseria gonorrhoeae; conditions: for Log reduction at 1 mM (calculated log reduction in viable bacteria) / log reduction at 1000 µM: maximum score 6 = all cells killed; for log reduction at 1000 µM: Neisseria gonorrhoeae, NCCP11945, 2 min, 1 mM, read-out: Log reduction at 1 mM (calculated log reduction in viable bacteria)
Description: as §1
(§3) Log reductions were done as described by Bergsson and coworkers ([18]). Briefly, cells were suspended in GC broth (18 g/liter GC base [Oxoid, Limited] with added defined supplements) to an optical density at 520 nm of 0.3, which is approximately equivalent to 10^7 to 10^8 cells per ml ([38]). […] The contents of the tubes were then mixed at room temperature for 2 min and immediately diluted in a 10-fold dilution series to 10^−4. The dilutions were plated by spreading 10 µl on a quarter of a plate; a 100-µl neat solution was also plated. Plates were then incubated at 37°C for 48 h, with all samples plated in duplicate. […] Additional testing at lower concentrations was also done on the eight clinical isolates of European origin.

[6] = test system: nine gonococcal isolates (strain NCCP11945 and eight isolates from Public Health England); assay: Minimum bactericidal concentration by log reduction against nine gonococcal isolates; type: cell-based, Neisseria gonorrhoeae; conditions: for Killing of all gonococcal cells for all isolates: 1 mM; for MBC: lowest concentration giving mean log reduction above 4 from a 2-min exposure
Excerpt: The seven candidates were further tested against nine gonococcal isolates, including strain NCCP11945 and eight isolates from Public Health England, to find their minimal bactericidal concentration (MBC). This was defined as the lowest concentration tested to give an average 4-log10 reduction in bacterial count after a 2-min exposure. […] Any candidate that killed all gonococcal cells in the cell suspension was given a log reduction score of six.
as §2, §3

[7] = test system: bovine cornea; assay: Bovine corneal opacity and permeability (BCOP) test
Description: Bovine eyes were collected from a local slaughter house (ABP, Guildford, Surrey, United Kingdom) and were transported in cold saline solution for testing at the laboratory. Each eye was first visually examined for signs of damage before use. The test was conducted as detailed by Abdelkader and coworkers ([21]). The exposure time of the test substances was 30 s. The selected bactericidal compounds were tested at 1 mM in saline solution, with a corresponding vehicle control (1% ethanol–saline solution) also performed. […] The test area of the cornea was then washed with 10 ml saline solution. Corneal damage to the test area was assessed by fluorescein staining and examination under a cobalt blue filter. Pathological scoring based on opacity, epithelial integrity, and epithelial detachment was done in accordance with previous publications ([19]). Each of the seven lead candidates was tested in triplicate, and each test was performed on a separate day using a different batch of eyeballs. Corneal histology was done as outlined by Abdelkader and coworkers ([21]) by evaluating the damage to the epithelial layer and stroma of the cornea after hematoxylin and eosin staining.

[8] = test system: S. aureus; parameters: method as in PMID 22808139; conditions: continuous passage on sublethal concentrations for a year; cited from earlier work
[9] = test system: C. trachomatis; parameters: method as in PMID 9736551; conditions: cited from earlier work
[10] = Neisseria gonorrhoeae, 2 min, read-out: MBC

Compound | Growth inhibition [3] | Effect of calcium in artificial tear fluid on antimicrobial effect [4] | Log reduction at 1 mM: at least a 4-log reduction in viable bacteria (Yes/No) [5] | Killing of all gonococcal cells for all isolates ([6]; 2 min) | log reduction at 1000 µM [5] | MBC [6, 10] [µM] | further results
CC(C)=O [Acetone, acetone] |  |  |  |  |  |  | HET-CAM irritancy / reaction at site of application [1]: Medium Irritant
CCCCCCCCCCCC(=O)O [Lauric acid] | Yes | inactivated | Yes | killed all gonococcal cells for all isolates |  |  | H50 concentration relative to MBC [2]: greater than their MBCs; Reduction in bacterial cell number in artificial tear fluid containing calcium chloride [4]: no reduction; Antigonococcal properties in tear fluid made without calcium chloride [4]: completely restored; Log reduction at 1 mM (calculated log reduction in viable bacteria) [5]: > 6 log10; MBC [6]: 750 µM (≈ 150 µg/mL)
CC/C=C\C/C=C\C/C=C\CCCCCCCC(=O)O [Linolenic acid] | Yes |  | Yes | did not | > 6 | 500 (≈ 139 µg/mL) | H50 concentration relative to MBC ([2]; H50 = concentration to lyse 50% of RBCs, MBC from Table 1): lower than their minimum bactericidal concentration; Mean cumulative BCOP score ([7]; 1 mM in saline solution, 30 s exposure, triplicate): lower than 0.5; Fluorescein staining of cornea ([7]; 1 mM, around rubber application ring): any sign of fluorescein staining; BCOP irritancy classification ([7]; candidates 1 mM in saline, controls 0.5 M NaOH, 100% acetone, 30 s exposure): nonirritants
CCCCCCCCCCCC(=O)OCC(O)CO (stereo not drawn) [Monolaurin] | Yes |  | No |  |  |  | Log reduction at 1 mM (calculated log reduction in viable bacteria) [5]: 3.4 log10; Development of antimicrobial resistance [8]: did not develop
CCCC/C=C\CCCCCCCC(=O)O [Myristoleic acid] | Yes | unaffected | Yes | killed all gonococcal cells for all isolates | > 6 | 500 (≈ 113 µg/mL) | Activity against C. trachomatis [9]: ineffective
[Na+].[OH-] [Sodium Hydroxide, sodium hydroxide, reference compound] |  |  |  |  |  |  | Corneal opacity, fluorescein staining and histology of epithelial layer ([7]; Fig. 4): complete detachment; HET-CAM irritancy / reaction at site of application [1]: Strong Irritant
CCCCCCCCCCCCC(=O)O [Tridecanoic acid] | Yes | inactivated | Yes | did not | > 6 | 750 (≈ 161 µg/mL) | H50 concentration relative to MBC [2]: greater than their MBCs; RBC lysis (hemolysis) ([2]; 1 h incubation, bovine RBCs): did not lyse RBCs at any concentration investigated; also recorded: did not cause any hemolysis; Reduction in bacterial cell number in artificial tear fluid containing calcium chloride [4]: no reduction; Antigonococcal properties in tear fluid made without calcium chloride [4]: completely restored
